Experimental findings from ChEMBL document CHEMBL3244194, “beta-Adrenoceptor blocking activity of halogenated thienylethanolamine derivatives” (J Med Chem, 1977) are described below.

As usually defined, the inhibition in vivo is the percentage by which the read-out fell short of the control. As a reminder, the LD50 is the dose expected to kill half of the subjects tested. A low value points to greater toxicity.

Activity calls are given as the source filed them. No cut-off for these calls is given here.

Data set [1] has as its system Rattus norvegicus. As to the kind of experiment: In vivo inhibition of beta-adrenoceptor in Wistar rat assessed as inhibition of isoproterenol-induced tachycardia at 4 mg/kg, iv relative to control. The class given is functional.
Data set [2] has as its system Rattus norvegicus. Nature of the data set: In vivo inhibition of beta-adrenoceptor in Wistar rat assessed as decrease in heart rate at 4 mg/kg, iv relative to control. The class given is functional.
A short description of data set [3]: Acute toxicity in iv dosed mouse. Particulars: in vivo.
In data set [4] the test system is Felis catus. Nature of the data set: In vivo inhibition of beta-adrenoceptor in cat assessed as inhibition of isoproterenol-induced tachycardia at 0.1 mg/kg, iv relative to control. The class given is functional.
Data set [5] concerns Felis catus. As to the kind of experiment: In vivo inhibition of beta-adrenoceptor in cat assessed as inhibition of isoproterenol-induced tachycardia at 1 mg/kg, iv relative to control. The class given is functional.
Data set [6] has as its system Felis catus. Nature of the data set: In vivo inhibition of beta-adrenoceptor in cat assessed as inhibition of isoproterenol-induced hypotension at 0.1 mg/kg, iv relative to control. The class given is functional.
Data set [7] relates to Felis catus. Nature of the data set: In vivo inhibition of beta-adrenoceptor in cat assessed as inhibition of isoproterenol-induced hypotension at 1 mg/kg, iv relative to control. The class given is functional.
Data set [8] relates to Cavia porcellus. As to the kind of experiment: In vivo inhibition of beta-adrenoceptor in histamine-treated guinea pig assessed as inhibition of isoproterenol-induced bronchodilator effect at 0.1 mg/kg, iv administered 3 mins prior to histamine/isoproterenol challenge relative to control. The class given is functional.
The subject of data set [9] is Mus musculus. As to the kind of experiment: Local anesthetic activity in ICR Swiss mouse assessed as inhibition of pain reflex response at 0.5%, id relative to control. The class given is functional.
In data set [10] the test system is Mus musculus. Nature of the data set: Local anesthetic activity in ICR Swiss mouse assessed as inhibition of pain reflex response at 1%, id relative to control. The class given is functional, organism-based.
In data set [11] the test system is Felis catus. As to the kind of experiment: In vivo inhibition of beta-adrenoceptor in cat assessed as inhibition of isoproterenol-induced tachycardia at 0.05 mg/kg, iv relative to control. The class given is functional.
Data set [12] has as its system Cavia porcellus. Nature of the data set: In vivo inhibition of beta-adrenoceptor in histamine-treated guinea pig assessed as inhibition of isoproterenol-induced bronchodilator effect at 0.01 mg/kg, iv administered 3 mins prior to histamine/isoproterenol challenge relative to control. The class given is functional, organism-based. Details: dose 0.01 mg/kg.

As to `CC(C)NCC(O)c1sccc1Cl` (racemic), the inhibition in vivo at 4 mg/kg in data set [1] and in [2] was 0% in each case. The LD50 in [3] stood at 38 mg/kg.
With `CC(C)(C)NCC(O)c1sccc1Cl` (racemic), the inhibition in vivo at 4 mg/kg in data set [1] and in data set [2] was 0% throughout. Besides, in [3], the 50% lethal dose (LD50) was found to be 25 mg/kg.
Take `CC(C)NCC(O)c1cc(Cl)cs1` (racemic): the inhibition in vivo at 4 mg/kg in data set [1] stood at 86%; in [2], 8%. Besides, the inhibition in vivo at 0.1 mg/kg in data set [4] came out at 62%; in data set [6], 57%. In addition, the inhibition in vivo at 1 mg/kg in data set [5] came to 90%; in data set [7] it was 75%. The compound also had an LD50 in [3] of 35 mg/kg.
For the compound `CC(C)(C)NCC(O)c1cc(Cl)cs1` (racemic), the inhibition in vivo at 4 mg/kg in [1] is 53%; in data set [2], 6%. The compound further displayed an LD50 in [3] of 38 mg/kg.
Regarding `CC(C)NCC(O)c1sc(Cl)cc1Cl` (racemic), the inhibition in vivo at 4 mg/kg came to 70% in [1] and 28% in data set [2]. The compound also returned an LD50 in [3] of 35 mg/kg.
Consider `CC(C)(C)NCC(O)c1sc(Cl)cc1Cl` (racemic), for which the inhibition in vivo at 4 mg/kg in data set [1] is 75%; in data set [2], 32%. For the same compound, the inhibition in vivo at 0.1 mg/kg in data set [4] stood at 65%; in [6], 55%. The values for the inhibition in vivo at 1 mg/kg in data set [5] and in data set [7] were 74% and 65%, respectively. In [3], this compound showed a 50% lethal dose (LD50) of 30 mg/kg.
Consider `CC(C)NCC(O)c1sc(Cl)c(Cl)c1Cl` (racemic), for which the inhibition in vivo at 4 mg/kg in data set [1] came out at 90%; in data set [2], 20%. In addition, the figures for the inhibition in vivo at 0.1 mg/kg in data set [4] and in data set [6] were 58% and 52%, respectively. Also, the inhibition in vivo at 1 mg/kg was 100% in [5] and 85% in [7]. In data set [3], this compound displayed a 50% lethal dose (LD50) of 35 mg/kg.
Regarding `CC(C)(C)NCC(O)c1sc(Cl)c(Cl)c1Cl` (racemic), the figures for the inhibition in vivo at 4 mg/kg in [1] and in data set [2] were 89% and 26%, respectively. In addition, the inhibition in vivo at 0.1 mg/kg in data set [4] was 69%; in [6], 87%; in [8] it was 100%. Besides, the inhibition in vivo at 1 mg/kg in [5] came out at 98%; in [7] it was 100%. For the same compound, in data set [9], the “inhibition (INH)” value amounted to 52%. Further, the “local anesthetic activity (active/inactive)” value in [10] was “Active”. The compound further gave an LD50 in data set [3] of 40 mg/kg.
As for `CC(C)NCC(O)c1ccc(Br)s1.Cl` (racemic), the inhibition in vivo at 4 mg/kg was determined as 87% in data set [1] and 11% in data set [2]. Moreover, the inhibition in vivo at 0.1 mg/kg turned out to be 67.5% in data set [4] and 50% in data set [6]. In addition, the inhibition in vivo at 1 mg/kg amounted to 82% in data set [5] and 72% in data set [7]. Also, the “inhibition (INH)” value in data set [9] is recorded as 52%. Moreover, the “local anesthetic activity (active/inactive)” value in data set [10] was “Active”. Further, the LD50 in data set [3] came out at 45 mg/kg.
For `CC(C)(C)NCC(O)c1ccc(Br)s1` (racemic), the inhibition in vivo at 4 mg/kg in [1] turned out to be 55.5%; in [2] it was 8%. In data set [3], this compound had an LD50 of 27 mg/kg.
For the compound `CC(C)NCC(O)c1sccc1Br` (racemic), the inhibition in vivo at 4 mg/kg in data set [1] and in [2] was 0% in each case. Also, in data set [3], the LD50 amounted to 35 mg/kg.
With `CC(C)(C)NCC(O)c1sccc1Br` (racemic), the figures for the inhibition in vivo at 4 mg/kg in data set [1] and in data set [2] were 12.5% and 10%, respectively. Also, the LD50 in data set [3] stood at 25 mg/kg.
As for `CC(C)NCC(O)c1cc(Br)cs1` (racemic), the inhibition in vivo at 4 mg/kg was found to be 89.5% in [1] and 11% in [2]. Further, the inhibition in vivo at 0.1 mg/kg amounted to 70% in data set [4] and 53% in data set [6]. Further, the results for the inhibition in vivo at 1 mg/kg in data set [5] and in [7] were 90% and 82%, respectively. The same compound came in with an LD50 in data set [3] of 42 mg/kg.
For the compound `CC(C)(C)NCC(O)c1cc(Br)cs1` (racemic), the inhibition in vivo at 4 mg/kg came out at 50% in [1] and 17% in data set [2]. Also, the inhibition in vivo at 0.1 mg/kg amounted to 33% in data set [4], 0% in [6] and 25% in [8]. The inhibition in vivo at 1 mg/kg was 67% in data set [5] and 50% in data set [7]. Moreover, in data set [3], the LD50 was 35 mg/kg.
As to `CC(C)NCC(O)c1cc(Br)c(Br)s1.Cl` (racemic), the inhibition in vivo at 4 mg/kg in data set [1] stood at 100%; in data set [2], 25%. Besides, the inhibition in vivo at 0.1 mg/kg in data set [4] stood at 92.5%; in data set [6], 75%; in data set [8], 40%. Further, the inhibition in vivo at 1 mg/kg in data set [5] and in data set [7] was 100% in each case. Besides, the inhibition in vivo at 0.05 mg/kg in data set [11] turned out to be 78%. Besides, the inhibition entry in [12] is “inactive”. In [9], the “inhibition (INH)” value was determined as 72.5%. In [10], the “local anesthetic activity (active/inactive)” value was “Active”. Also, in [3], the LD50 worked out at 45 mg/kg.
On to `CC(C)(C)NCC(O)c1cc(Br)c(Br)s1` (racemic), for which the results for the inhibition in vivo at 4 mg/kg in data set [1] and in [2] were 92% and 18%, respectively. Further, the inhibition in vivo at 0.1 mg/kg in data set [4] is 87.5%; in [6], 58%; in data set [8] it was 100%. The inhibition in vivo at 1 mg/kg in [5] was 100%; in data set [7], 95%. Further, in data set [11], the inhibition in vivo at 0.05 mg/kg came to 61%. Besides, the “inhibition (INH)” value in [9] came out at 100%. The “local anesthetic activity (active/inactive)” value in data set [10] is “Active”. Also, the LD50 in [3] amounted to 38 mg/kg.
Take `CC(C)NCC(O)c1sc(Br)cc1Br` (racemic): the inhibition in vivo at 4 mg/kg in [1] was found to be 77.5%; in [2], 14%. In data set [3], this compound returned an LD50 of 35 mg/kg.
`CC(C)(C)NCC(O)c1sc(Br)cc1Br` (racemic): the inhibition in vivo at 4 mg/kg worked out at 78% in data set [1] and 17% in [2]. Besides, the inhibition in vivo at 0.1 mg/kg in data set [4] amounted to 50%; in data set [6], 45%. The values for the inhibition in vivo at 1 mg/kg in [5] and in data set [7] were 88% and 89%, respectively. Besides, the “inhibition (INH)” value in data set [9] was 82%. The “local anesthetic activity (active/inactive)” value in data set [10] was “Active”. Moreover, in data set [3], the LD50 came out at 42 mg/kg.
Regarding `CC(C)NCC(O)c1scc(Br)c1Br.Cl` (racemic), the inhibition in vivo at 4 mg/kg in [1] is 92%; in data set [2], 10%. The compound also displayed a median lethal dose (LD50) in data set [3] of 27 mg/kg.
Take `CC(C)(C)NCC(O)c1scc(Br)c1Br` (racemic): the inhibition in vivo at 4 mg/kg in [1] was found to be 95%; in data set [2] it was 36%. The figures for the inhibition in vivo at 0.1 mg/kg in data set [4], in data set [6] and in data set [8] were 53%, 64% and 100%, respectively. Moreover, the results for the inhibition in vivo at 1 mg/kg in data set [5] and in [7] were 92% and 97%, respectively. For the same compound, the “inhibition (INH)” value in [9] turned out to be 75%. Further, in data set [10], the “local anesthetic activity (active/inactive)” value is “Active”. Moreover, the LD50 in data set [3] amounted to 28 mg/kg.
On to `CC(C)NCC(O)c1sc(Br)c(Br)c1Br` (racemic), for which the inhibition in vivo at 4 mg/kg in data set [1] amounted to 75%; in data set [2], 10%. The inhibition in vivo at 0.1 mg/kg stood at 50% in data set [4] and 65% in data set [6]. Moreover, the inhibition in vivo at 1 mg/kg in data set [5] amounted to 95%; in data set [7] it was 88%. The “inhibition (INH)” value in data set [9] worked out at 40%. Further, in data set [10], the “local anesthetic activity (active/inactive)” value is “Active”. The LD50 in data set [3] amounted to 35 mg/kg.
For the compound `CC(C)(C)NCC(O)c1sc(Br)c(Br)c1Br` (racemic), the inhibition in vivo at 4 mg/kg turned out to be 90% in data set [1] and 12% in data set [2]. The results for the inhibition in vivo at 0.1 mg/kg in data set [4] and in data set [6] were 72.5% and 77.5%, respectively. The inhibition in vivo at 1 mg/kg in [5] and in [7] was 100% in each case. Moreover, the LD50 in [3] was determined as 32 mg/kg.
As for `CC(C)NCC(O)COc1cccc2ccccc12` (stereo not given) [PROPRANOLOL], the inhibition in vivo at 4 mg/kg in [1] stood at 95%; in data set [2], 32%. Also, the inhibition in vivo at 0.1 mg/kg in data set [4] stood at 87%; in data set [6], 85%; in data set [8], 100%. The inhibition in vivo at 1 mg/kg in data set [5] and in [7] was 100% throughout. The inhibition entry in data set [12] is “Active”. In addition, the “inhibition (INH)” value in [9] is given as 93%. In addition, the “local anesthetic activity (active/inactive)” value in data set [10] is “Active”.
